Laboratory results from patent US20240335445A1, “Compounds and Compositions for Treating Fibrosis” (YALE UNIVERSITY, priority 2017, published 2024).
pIC50, pKd: −log10 of the molar value.

Assays:
Type in all cases: biochemical
MKP5 [1] = target: T1, MKP5 (Homo sapiens, UniProt Q9Y6W6); assay: MKP-5 Malachite Green phosphate assay with dual phosphorylated peptide pTpY; conditions: for inhibition at 12.5 µM: read-out: % inhibition of MKP-5
T1 sequence (Q9Y6W6 1-482): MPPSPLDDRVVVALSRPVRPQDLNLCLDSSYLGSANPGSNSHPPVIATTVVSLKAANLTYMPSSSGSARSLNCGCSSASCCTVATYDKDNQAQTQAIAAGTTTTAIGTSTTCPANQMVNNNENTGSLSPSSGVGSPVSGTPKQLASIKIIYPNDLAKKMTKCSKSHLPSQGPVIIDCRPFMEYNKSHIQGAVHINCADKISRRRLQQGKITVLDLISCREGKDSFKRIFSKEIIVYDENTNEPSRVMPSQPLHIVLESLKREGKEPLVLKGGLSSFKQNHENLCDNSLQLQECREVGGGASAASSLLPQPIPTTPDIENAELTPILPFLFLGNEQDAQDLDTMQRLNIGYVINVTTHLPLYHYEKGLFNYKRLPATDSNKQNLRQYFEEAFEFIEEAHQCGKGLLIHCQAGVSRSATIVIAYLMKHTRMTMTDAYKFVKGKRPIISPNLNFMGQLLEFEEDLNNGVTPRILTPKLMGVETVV
From the text: In a non-limiting example, the assay comprises contacting a peptide comprising the sequence pThr-Gly-pTyr, the polypeptide comprising and/or consisting of the catalytic domain of MKP-5 (such as but not limited to residues 305-482 of SEQ ID NO:4), or an active fragment thereof, and the test compound. If the test compound is a MKP-5 inhibitor, it will inhibit the dephosphorylation of the peptide comprising the sequence pThr-Gly-pTyr. If the test compound is not a MKP-5 inhibitor, it will not inhibit the dephosphorylation of the peptide comprising the sequence pThr-Gly-pTyr. Dephosphorylation of that peptide can be evaluated qualitatively and/or quantitatively using any methods known in the art, such as but not limited to a Malachite Green Phosphate Assay. This assay provides a fast, reproducible, colorimetric method for measuring inorganic free phosphate in aqueous solutions. The assay method is based on the formation of a complex between malachite green molybdate and free orthophosphate that absorbs at 620-640 nm. This assay is a reliable and suitable means of detecting and quantifying minimal amounts of inorganic free phosphate and is amenable to high-throughput screening applications.
Compounds from the pilot collection consisting of Microsource GenPlus, Microsource Natural Product, NIH Clinical collections, ChemBridge DIVERSet, ChemBridge MicroFormats, Maybridge Diversity, and ChemBridge Amines and Alcohols were screened. Assay conditions were 1.5 μM MKP-5 and 25 μM dual phosphorylated peptide DDE (Nle) (pT) G (pY) VATR (10 μL total volume), incubated for 30 minutes at 37° C. followed by addition of 40 μL Malachite Green reagent. Z′ values are ˜0.7-0.8. Malachite green reagent was made by combining 30 mL 0.045% Malachite Green (Sigma #M-9636) with 20 mL 4.2% ammonium molybdate in 4 M HCl, shaking for at least 30 mins and adding 0.01% Tween 20.

MKP5 [2] = target: T1, MKP5; assay: MKP-5 inhibition, assay not specified; conditions: read-out: IC50 against MKP-5
MKP5 [3] = target: T1, MKP5; assay: MKP5 pNPP assay
MKP5 [4] = target: T1, MKP5; assay: MKP5 EZReader assay with fluorescent mono-phosphorylated peptides
[5] = Kd (M) MKP5 EZREader fluor pT_Y, substrate fluor pT_Y (SEQ ID NO: 2)
[6] = Kd (M) MKP5 EZReader fluor_TpY, substrate fluor_TpY (SEQ ID NO: 1)

CSc1scc2c1-c1nc(SCC(=O)C(C)(C)C)ncc1CC2 [YU032149, 3,3-dimethyl-1-((9-(methylthio)-5,6-dihydrothieno[3,4-h]quinazolin-2-yl)thio)butan-2-one]
pKd (MKP5 [1]): 5.20 | pIC50 (MKP5 [2]): ~4.92 | pKd (MKP5 [3]): 5.37 | Kd (MKP5 [4]; [5]): 1.13e-05 M | Kd (MKP5 [4]; [6]): 1.75e-05 M

O=c1cc2oc3cc(O)c(O)cc3c(-c3ccc([N+](=O)[O-])o3)c-2cc1O [YU109017]
pKd (MKP5 [1]): < 4.00 | pKd (MKP5 [3]): < 4.00 | Kd (MKP5 [4]; [5]): 1.56e-05 M | Kd (MKP5 [4]; [6]): 1.03e-05 M

O=C(O)c1ccc(C2Nc3c(-c4ccccc4)cccc3C3C=CCC32)cc1 (centres unmarked) [YU119284]
pKd (MKP5 [1]): < 4.00 | pKd (MKP5 [3]): < 3.70 | Kd (MKP5 [4]; [5]): > 0.0002 M | Kd (MKP5 [4]; [6]): > 0.0002 M

Cc1ccc(C)n1-c1ccc(C(=O)O)c(O)c1 [YU129641]
pKd (MKP5 [1]): < 4.00 | pKd (MKP5 [3]): < 3.70 | Kd (MKP5 [4]; [5]): 1.41e-05 M | Kd (MKP5 [4]; [6]): 1.04e-05 M

CC(C)(C)C(=O)CSc1ncc2cnc3ccccc3c2n1 [YU241658]
inhibition at 12.5 µM (MKP5 [1]): 15%

CC(=O)N1Cc2cnc(SCC(=O)C(C)(C)C)nc2-c2ccccc21 [YU241659]
inhibition at 12.5 µM (MKP5 [1]): 12%

CC(C)(C)C(=O)CSc1ncc2c(n1)-c1ccsc1CC2 [YU252252]
inhibition at 12.5 µM (MKP5 [1]): 37%
